{"source": "patent US20100098759A1", "about": "“CONTROLLED-RELEASE PREPARATION CONTAINING CILOSTAZOL AND PROCESS FOR THE PREPARATION THEREOF” (AMOREPACIFIC CORPORATION;, priority 2007, published 2010)", "origin": "cited, not measured here", "data": [{"molecule": "O=C1CCc2cc(OCCCCc3nnnn3C3CCCCC3)ccc2N1", "note": "[Cilostazol]", "values": [{"measurement": "water-solubility", "result": "≤ 1", "unit": "µg/mL"}]}]}
